In data set [1] the test system is liver. The note with it: cited from earlier work.
Data set [2] has as its system Ikkβ^f/f and Ikkβ^Δ dih10 cells. As to the kind of experiment: Subcutaneous tumor growth of implanted dih10 hepatoma cells in C57BL/6 mice. It is filed as in vivo, mouse. As to the method:
FIG. 20. IKKβ deletion in initiated cells enhances proliferation and self-renewal of HCC progenitors. (A) DEN-induced HCC (dih) cell strains from Ikkβ^f/f mice were cultured and infected with Adv-GFP or Adv-Cre. Whole cell lysates of infected dih10 cells were immunoblotted for IKKβ (bottom panel). The cells were further cultured without serum on Petri dishes to form hepatospheres (upper panels). Numbers of 1^0 and 2^0 hepatospheres formed per 100 plated cells were determined (n=3; *: p<0.05). Magnification bar=100 μm. (B) Ikkβ^f/f dih10 cells were infected with an empty retrovirus (vector) or a retrovirus expressing IκBα super-repressor (SR). Stably transfected cells were selected and cultured as above and hepatosphere formation was analyzed (n=3; *: p<0.05). (C, D) IKKβ expressing (Ikkβ^f/f) and deficient (Ikkβ^Δ) dih10 cells (2.5×10^6 each) were s.c. injected into 8 weeks old C57BL/6 mice. (C) Allograft volume was measured weekly (n=5; *: p<0.01). Dissected tumors are shown on the right. (D) BrdU incorporation into tumors was determined (n=5; *: p<0.05). (E) Ikkβ^f/f and Ikkβ^Δ dih12 cells were labeled with dsRed and 4×10^5 cells were seeded into MUP-uPA mouse livers. Relative amounts of dsRed DNA in transplanted MUP-uPA livers were determined by real-time PCR 3 weeks post-inoculation and normalized to actin DNA as a measurement of cell growth (n=5; *: p<0.05). (F) Ikkβ^Δ dih10 cells were reconstituted with a control vector or WT IKKβ expression vector and were s.c. injected into 8 weeks old C57BL/6 mice. Allograft volume was measured weekly (n=5; *: p<0.01). (G) Ikkβ^f/f and IkkβΔ dih10 cells were s.c. injected as above. Starting from day 2, mice were treated daily with MLN120B or vehicle by oral gavage. Tumor volume was measured weekly (n=5; *: p<0.01, f/f/control vs. f/f/MLN by one-way ANOVA). Please also see FIG. 27.
(§1) FIG. 22. ROS-mediated SHP1/2 inhibition in IKKβ-deficient HCCs correlates with STAT3 activation and accelerated tumor growth. (A) Tumors derived from Ikkβ^f/f (f/f) and Ikkβ^Δ (Δ) dih10 cells were collected and lysed. Tumor lysates were immunoprecipitated with an anti-JAK2 antibody and examined for JAK2 tyrosine phosphorylation with PY20 antibody. Tumor lysates were also used for immunoblot analyses with the indicated antibodies. (B) SHP1 and SHP2 were immunoprecipitated from above tumor lysates and their phosphatase activities were measured (n=4; *: p<0.05). (C) Fresh frozen sections of HCCs from transplanted MUP-uPA mice were analyzed for superoxide accumulation by DHE staining. Fluorescence intensity in several fields was quantitated by ImageJ and relative average increases in fluorescent intensity are shown (n=3; *: p<0.01). Magnification bar=100 μm. (D-F) Ikkβ^f/5 (f/f) and Ikkβ^Δ (Δ) dih10 cells […] each were s.c. implanted into 8 weeks old C57BL/6 mice. Starting on day 2, the mice were switched to a diet containing vehicle or BHA (0.7%) for 6 weeks. (D) Tumors were collected from BHA treated and untreated mice, lysed and SHP1/2 phosphatase activities were measured. The data were plotted as SHP1/2 phosphatase activities in Ikkβ^Δ tumors relative to activities in Ikkβ^f/f tumors (n=4; *: p<0.05). (E) Tumor lysates were used to determine JNK kinase activity and STAT3 phosphorylation. (F) Tumor volume was measured weekly (n=5; p<0.01, Δ/ctrl vs. Δ/BHA by one way ANOVA). Please also see FIG. 29.
FIG. 30. STAT3 is required for HCC formation and growth. (A-D) Ikkβ^f/f (f/f) and Ikkβ^Δ (Δ) dih10 cells were s.c. implanted into 8 weeks old C57BL/6 mice. (A) Starting on day 2, the mice were i.p. injected with vehicle (ctrl) or 0.5 mg/mouse AG490 daily. Tumor volume was measured (n=5; p<0.05, f/f/vehicle vs. f/f/AG490; p<0.01, Δ/vehicle vs. Δ/AG490 by one way ANOVA). (B) After 6 weeks, tumors were removed, lysed and analyzed by immunoblotting with the indicated antibodies. […] (D) After 6 weeks, tumors were removed and analyzed as above. […]

Data set [3] concerns the target T1, STAT3 (Mus musculus, UniProt P42227).
T1 construct: from tissue; host or cells: subcutaneous tumors formed by Ikkβf/f or IkkβΔ dih10 cells in C57BL/6 mice
The data set is described as follows: STAT3 phosphorylation in lysates of dih10 tumors (immunoblot). It is filed as in vivo. In general terms: Immunoblotting shows a protein as a band on a membrane.

The subject of data set [4] is STAT3 phosphorylation in Ikkβ^f/f dih10 cells. As to the kind of experiment: IL-6 induced STAT3 phosphorylation by immunoblotting in dih10 cells. It counts as cell-based, mouse. The following applies: dih cells serum starved 48 hrs; 20 μM MLN120B; 10 ng/ml IL-6 30 min. As to the method: (§2) FIG. 28. IKKβ ablation enhances STAT3 activation. (A) Ikkβ^f/f and Ikkβ^Δ dih10 cells were cultured under hepatosphere-forming conditions for 3 days and treated with 10 ng/ml of IL-6 for the indicated times. Whole cell lysates were analyzed by immunoblotting for STAT3 phosphorylation. (B) Ikkβ^f/f and Ikkβ^Δ dih10 cells were cultured under hepatosphere-forming conditions for 3 days and treated with 10 ng/ml of IL-22 for 30 min. STAT3 phosphorylation was analyzed as above. (C) Ikkβ^Δ dih10 cells were cultured under hepatosphere-forming conditions and infected with a control Adv or an Adv vector expressing constitutively active IKKβ^EE. The cells were treated with 10 ng/ml of IL-6 for 15 min and STAT3 phosphorylation was analyzed. (D) Ikkβ^f/f dih10 cells and HepG2 cells were serum starved for 48 hrs and treated with 20 μM MLN120B for the indicated times. The cells were then stimulated with 10 ng/ml of IL-6 for 30 min and STAT3 phosphorylation was analyzed by immunoblotting. Relative activities (RA) of STAT3 phosphorylation were determined by densitometry. (E) Ikkβ^f/f (f/f) and Ikkβ^Δ (Δ) HCCs from transplanted MUP-uPA mice were collected and total RNA was extracted. Expression of IL-6 and IL-22 mRNAs was measured by RT PCR.
(§3) RNA extraction and q-PCR were described (Sakurai et al., 2006). […] SHP1/2 phosphatase activities were determined as described (Lee and Esselman, 2002).

Data set [5] concerns STAT3 phosphorylation in HepG2 cells. As to the kind of experiment: IL-6 induced STAT3 phosphorylation by immunoblotting in HepG2 cells. It is filed as cell-based. The following applies: human liver cancer cell line (HepG2) serum starved 48 hrs; 20 μM MLN120B; 10 ng/ml IL-6 30 min. As to the method: as §2, §3
Data set [6] concerns SHP1 and SHP2. The data set is described as follows: SHP1/2 phosphatase activities in lysates of dih10 tumors. It counts as in vivo, mouse. The note with it: diet containing BHA (0.7%) for 6 weeks.
Excerpt: as §1, with “Starting on day 2, the mice were switched to a diet containing vehicle or BHA (0.7%) for 6 weeks.” left out, “The data were plotted as SHP1/2 phosphatase activities in Ikkβ^Δ tumors relative to activities in Ikkβ^f/f tumors (n=4; *: p<0.05). (E) Tumor lysates were used to determine JNK kinase activity and STAT3 phosphorylation.” left out, “Please also see FIG. 29.” left out
as §3

The subject of data set [7] is JNK. As to the kind of experiment: JNK kinase activity in lysates of dih10 tumors. It counts as in vivo, mouse. The following applies: diet containing BHA (0.7%) for 6 weeks.
Excerpt: as §1, with “Starting on day 2, the mice were switched to a diet containing vehicle or BHA (0.7%) for 6 weeks.” left out, “The data were plotted as SHP1/2 phosphatase activities in Ikkβ^Δ tumors relative to activities in Ikkβ^f/f tumors (n=4; *: p<0.05). (E) Tumor lysates were used to determine JNK kinase activity and STAT3 phosphorylation.” left out, “Please also see FIG. 29.” left out
as §3

Data set [8] relates to JAK2. As to the kind of experiment: JAK2 phosphorylation in IKKβ-deficient tumors. It counts as in vivo, mouse. The note with it: BHA treatment of tumor-bearing mice.
Excerpt: as §1, with “The data were plotted as SHP1/2 phosphatase activities in Ikkβ^Δ tumors relative to activities in Ikkβ^f/f tumors (n=4; *: p<0.05). (E) Tumor lysates were used to determine JNK kinase activity and STAT3 phosphorylation.” left out, “Please also see FIG. 29.” left out

The subject of data set [9] is liver. The following applies: cited from earlier work. The source holds these as a separate data set.
Data set [10] relates to human breast cancer cell line with constitutive STAT3 activity. The following applies: in vivo; cited from earlier work.
Data set [11] has as its system Huh-7. The note with it: 5 mg/kg given every other day; cited from earlier work.
Data set [12] relates to many different types of cancer cells transplanted into mice. The following applies: in vivo; cited from earlier work.
Setting [13] is: AG490 0.5 mg/mouse i.p. daily from day 2.
[14] abbreviates: s.c. dih10 in C57BL/6, MLN120B daily by oral gavage from day 2.
[15] abbreviates: diet containing BHA (0.7%) for 6 weeks.

“Also recorded” adds a separate entry of the source.

T1 sequence (P42227 whole entry): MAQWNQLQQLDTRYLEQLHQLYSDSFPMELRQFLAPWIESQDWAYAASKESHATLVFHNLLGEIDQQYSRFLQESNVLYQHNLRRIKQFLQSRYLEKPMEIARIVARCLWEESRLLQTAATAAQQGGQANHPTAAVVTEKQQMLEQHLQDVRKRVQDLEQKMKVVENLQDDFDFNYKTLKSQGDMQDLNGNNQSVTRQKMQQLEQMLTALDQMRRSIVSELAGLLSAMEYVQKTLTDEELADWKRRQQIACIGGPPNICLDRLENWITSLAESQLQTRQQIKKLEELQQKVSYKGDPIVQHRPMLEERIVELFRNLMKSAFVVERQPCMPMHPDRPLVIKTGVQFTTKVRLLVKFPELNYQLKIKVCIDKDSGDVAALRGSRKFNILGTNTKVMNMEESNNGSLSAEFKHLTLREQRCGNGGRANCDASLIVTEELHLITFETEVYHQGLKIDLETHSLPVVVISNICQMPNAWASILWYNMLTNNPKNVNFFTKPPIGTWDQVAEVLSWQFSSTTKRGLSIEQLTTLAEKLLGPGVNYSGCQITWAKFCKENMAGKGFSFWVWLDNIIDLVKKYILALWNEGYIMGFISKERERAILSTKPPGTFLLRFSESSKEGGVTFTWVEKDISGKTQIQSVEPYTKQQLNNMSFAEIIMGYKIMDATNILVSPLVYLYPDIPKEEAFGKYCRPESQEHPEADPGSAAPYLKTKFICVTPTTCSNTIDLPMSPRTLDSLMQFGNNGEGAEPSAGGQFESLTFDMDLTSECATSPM

With `CCN(CC)N=O` [DEN, diethyl nitrosamine], the HCC induction result in [1] (male mice older than 4 weeks of age) was “no longer effective in HCC induction on its own”. Also, in data set [1] (single dose to two-weeks-old mice), the “HCC induction, fraction of male mice” value was 100%.
For the compound `N#C/C(=C/c1ccc(O)c(O)c1)C(=O)NCc1ccccc1` [AG490], the “in vivo tumorigenic growth of dih cells” value in data set [2] is “effective inhibition”. For the same compound, in data set [2] (setting [13]), the “Ikkβ^f/f tumorigenic growth” value is listed as “more modest effect” and the “growth of Ikkβ^Δ subcutaneous tumors” value is given as “inhibited the growth”. Also, the “STAT3 activity in dih cell tumors” value in data set [3] is listed as “effective inhibition”. Moreover, the “STAT3 phosphorylation in tumors” value in [3] (AG490 0.5 mg/mouse i.p. daily, tumors after 6 weeks, both IKKβ status) is on record as “inhibited STAT3 phosphorylation regardless of IKKβ status”.
For `COc1c(Cl)cc2c([nH]c3cnccc32)c1NC(=O)c1cccnc1C` [MLN120B], the “tumorigenic growth (tumor volume) of Ikkβ^f/f dih cells” value in [2] (setting [14]) is listed as “enhanced tumorigenic growth”. Also, in data set [2] (setting [14]), the “tumorigenic growth (tumor volume) of Ikkβ^Δ dih cells” value is on record as “not Ikkβ^Δ cells”. Besides, the “IL-6 induced STAT3 activation” value in data set [4] and in [5] was “enhanced IL-6 induced STAT3 activation” each time.
For `COc1ccc(O)c(C(C)(C)C)c1` [BHA, butylated hydroxyanisole], in [2] (setting [15]), the “Ikkβ^Δ tumor growth” value was “inhibits tumor growth; also recorded: reduced Ikkβ^Δ tumor growth to a level that was similar to that of Ikkβ^f/f tumors in untreated mice”. The “SHP1/2 phosphatase activities in IKKβ-deficient tumors” value in [6] was “restores SHP1/2 activity; also recorded: completely restored”. Besides, in data set [3] (setting [15]), the “STAT3 phosphorylation in tumors” value was “reduced”. Moreover, the “JNK activity in tumors” value in data set [7] was “reduced JNK activity”. The “JAK2 phosphorylation in IKKβ-deficient tumors” value in data set [8] is “reduces”. For the same compound, the “liver damage, compensatory proliferation and hepatocarcinogenesis” value in data set [9] (Ikkβ^Δhep and Ikkγ^Δhep mutant mice, BHA consumption) was “reversed”. In [9] (dietary administration), the “ROS accumulation in the liver” value is given as “can be prevented”.
`Cc1ccc(S(=O)(=O)OCC(=O)Nc2ccc(C(=O)O)c(O)c2)cc1` [S3I-201]: the “in vivo tumorigenic growth of dih cells” value in data set [2] was “effective inhibition”. Moreover, the “tumor growth of breast cancer xenografts” value in data set [10] was “inhibition of tumor growth”. In addition, in data set [11], the “STAT3 tyrosine phosphorylation in Huh-7 xenografts” value was “inhibited” and the “tumor growth of Huh-7 xenografts” value is “inhibited”.
For the compound `Cc1cc(Nc2nc(N[C@@H](C)c3ncc(F)cn3)ncc2Cl)n[nH]1` [AZD1480], in [12], the “tumorigenic growth of cancer cells transplanted into mice” value is reported as “Effective inhibition”.

The values above are taken from patent publication US20140086939A1, “COMPOSITIONS AND METHODS FOR DETECTING AND TREATING CANCER” (priority 2011, published 2014).
